Key:
[1] = molecular target: T1, UBXD1-PUB (Homo sapiens, UniProt Q9BZV1); assay: 15N-HSQC NMR titration of 15N-labeled UBXD1-PUB with p97 peptides; type: binding; details: 50 mM NaKPi pH 6.5, 25 °C; for binding in 15N-HSQC NMR titration: phosphorylated p97-C13-pY805, 270 µM protein, up to 1.25 mM peptide, 1.2 mM or 1.1 mM (Figure S1)
T1 construct: N-terminal hexahistidine-tagged UBXD1-PUB (150–264) was cloned into a pET28a expression vector; hexahistidine (His6) (N); made in house
T1 sequence (Q9BZV1 150-264): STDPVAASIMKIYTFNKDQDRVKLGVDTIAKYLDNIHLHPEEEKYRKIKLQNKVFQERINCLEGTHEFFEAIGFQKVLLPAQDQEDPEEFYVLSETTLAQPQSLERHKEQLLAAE
Description: The NMR samples contained 200–800 µM of ^15N,^13C- or ^15N-labeled protein in 50 mM NaKPi pH 6.5, 90%/10% (v/v) H2O/D2O. ^13C(aliphatic)-COSY and TOCSY experiments were measured in the same buffer with 100% D2O. All spectra were recorded at 25 °C on a 700 MHz Bruker Ultrashield NMR spectrometer equipped with a 5 mm TCI (^1H/^13C/^15N) triple resonance cryoprobe head. Spectra were processed with Topspin 3.5 (Bruker) and analyzed with CARA [42].
To 362 μM ^15N-labeled UBXD1-PUB, the p97-C10 or p97-C13 peptides were added stepwise to a final concentration of 1.1 mM. For the titration of the phosphorylated p97-C13-pY^805 peptide to the PUB domain, the protein concentration was 270 µM, and the peptide was titrated to a final concentration of 1.2 mM. After each addition, the ^1H,^15N-HSQC spectrum was recorded.
The chemical shift perturbation Δδtotal was calculated from the ^1H- and ^15N-shifts according to Equation (1) using the spectra with no peptide and the highest concentration of peptide, where ΔδN and ΔδH represent the chemical shift perturbation value of the amide nitrogen and proton, respectively:(1) Δδtotal=(ΔδH)^2+(0.154⋅ΔδN)^2.

[2] = molecular target: T2, UBXD1 PUB domain (Homo sapiens, UniProt Q9BZV1); assay: p97-PIM peptide binding to UBXD1 PUB domain (summary); details: isolated p97-PIM peptide
T2 construct: N-terminal hexahistidine-tagged UBXD1-PUB (150–264) was cloned into a pET28a expression vector; hexahistidine (His6) (N); made in house
T2 sequence (Q9BZV1 150-264): T1 sequence (Q9BZV1 150-264)
Description: Fluorescence anisotropy measurements (excitation: 495 nm; emission 518 nm) were carried out on a JASCO FP-8300 fluorescence spectrometer in 50 mM NaKPi, pH 6.5 at 25 °C, titrating PUB constructs to 5,6-FAM labeled p97-C10 peptide (100 nM). All titrations were performed in triplicate. Binding curves of the averaged data were fitted with GraphPad Prism 5.0 (GraphPad) using the quadratic binding equation for a one-site specific binding model:(3) r=r0+rmax⋅(F+x+KD)−(F+x+KD)^2−4⋅x⋅F/2⋅F, with r = anisotropy, r0 = anisotropy without protein, rmax = maximum anisotropy, F = fluorescent probe (labeled peptide or protein) concentration, x = titrant protein concentration, and KD = dissociation constant.
ITC measurements were performed in triplicate with a MicroCal iTC2000 (Malvern Pananalytical). UBXD1-PUB (100 µM) was titrated with 1 mM of p97-C10 peptide in 50 mM NaKPi buffer (pH 6.5) at 25 °C in 40 steps with a volume of 0.5 µL for the first 9 steps and 1.0 µL for the remaining ones.

[3] = molecular target: HOIP PUB domain; details: ref [25],[27],[34]; cited from earlier work
Text: (§1) UBXD1, PNGase, and HOIP PUB domains bind the p97-PIM peptide with KDs in the low µM range and a 1:1 stoichiometry (Table 2, Figure 4, Figure 5 and Figure S2, and [25, 27, 34]). The KD of HOIP for the OTULIN- and SPATA2-PIMs, however, is 50 times lower and lies in the nM range, which maybe reflects that these complexes either operate at lower concentrations in the cell or a have a lesser need to exchange their binding partners. p97, on the other hand, might need to swap cofactors more readily either within one pathway or to switch between different pathways.

[4] = molecular target: PNGase PUB domain; details: ref [25],[27],[34]; cited from earlier work
Text: as §1

For SVYTEDNDDDLpYG [phosphorylated p97-C13], which “binding in 15N-HSQC NMR titration” value [1] is on record?
Its value is “no”.

And the “binding in 15N-HSQC NMR titration” value ([1]; listed as p97-C13 peptide carrying a phosphorylated pY805)?
Its value is “did not show any binding”.

Which “KD of PUB domain for p97-PIM peptide” value [2] does the source give for “p97-PIM peptide: PUB interacting motif (PIM) in the p97 C-terminus (TEDNDDDLYG)” here?
The value was “low µM range”.

What about the “KD of PUB domain for p97-PIM peptide” value [3] of the same substance?
The value was “low µM range”.

And the “KD of PUB domain for p97-PIM peptide” value [4]?
The value was “low µM range”.

For SVYTEDNDDDLYG [p97-C13], which “chemical shift perturbations (CSPs) Δδtotal” value ([1]; 362 μM 15N-UBXD1-PUB, peptide to 1.1 mM, resonances between second and fourth α-helix) is on record?
The value was greater than 0.2 ppm.

Reference: paper PMC6995525, “Structure of the PUB Domain from Ubiquitin Regulatory X Domain Protein 1 (UBXD1) and Its Interaction with the p97 AAA+ ATPase” (Biomolecules, 2019)
